Laboratory results as given in article PMC10073126, “Levosimendan inhibits disulfide tau oligomerization and ameliorates tau pathology in Tau^P301L-BiFC mice” (Experimental & Molecular Medicine, 2023).

Assays:
tauK18 [1] = target: T1, tauK18 (Homo sapiens, UniProt P10636); test: In vitro tau disaggregation assay (thioflavin S); format: biochemical; conditions: preformed tauK18 aggregates, 4 days; read-out: EC50, tau disaggregation (ThS)
T1 construct: under in vitro conditions using a purified tauK18 fragment; 6xHis; made in house; host or cells: E. coli BL21 (DE3)
T1 sequence (P10636 561-685 limits assumed): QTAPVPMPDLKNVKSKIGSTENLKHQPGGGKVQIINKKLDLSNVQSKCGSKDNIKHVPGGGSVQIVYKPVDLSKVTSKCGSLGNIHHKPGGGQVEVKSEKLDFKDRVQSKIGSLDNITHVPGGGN
Experimental: To evaluate the inhibitory effect of drugs on tau aggregation, tauK18 protein (0.5 mg/mL) was incubated with each drug at various concentrations in the presence of DTT (100 μM) and heparin (0.1 mg/mL) at 37 °C for 5 days with vigorous shaking (220 rpm). For the tau disaggregation assay, the preformed aggregation mixture of tauK18 was incubated with each drug at 37 °C for 4 days with vigorous shaking (220 rpm). On the final day of incubation, the level of β-sheet aggregates was evaluated by thioflavin S (ThS) assay. For the ThS assay, 5 μL of each mixture was transferred to a black 384-well plate with 45 μL of PBS containing 10 μM ThS. ThS fluorescence (λex = 430 nm, and λem = 500 nm) was measured by using a Flexstation2 spectrophotometer (Molecular Devices).

Tau^P301L-BiFC mice [2] = test: Novel object recognition test; format: in vivo, mouse; conditions: 5 mg/kg i.p., three times a week, 4 months; vehicle TG 0.49, WT 0.74
Experimental: (§1) For drug administration, LMTM and levosimendan were dissolved in PBS containing 40% polyethylene glycol (PEG; Sigma). Nine-month-old Tau^P301L-BiFC mice were intraperitoneally administered each drug for 4 months, three times a week, at a dosage of 5 mg/kg (n = 11 per group). Vehicle-treated Tau^P301L-BiFC mice and age-matched wild-type mice were used as control groups. Behavioral assessments were conducted as described below for one month from the end of drug administration. All mice were sacrificed at the age of 14 months for pathological analysis.
The novel object recognition test was performed as described previously. Briefly, for habituation, mice (n = 9 per group) were individually placed in the center of an open field arena (40 × 40 cm) and could freely explore for 15 min. The next day, in the training trial (familiarization phase), the mice could explore two identical objects in the open field for 10 min. […] The exploration time for the familiar (old) or the new (novel) object during the recognition phase was recorded using a Noldus EthoVision XT video tracking system. Memory was operationally defined by the recognition index calculated by dividing the time an animal spent exploring the novel object or old object by the total time spent exploring objects in the testing period. The exploration time was measured when the mouse pointed toward the object in the vicinity of the object.

Tau^P301L-BiFC mice [3] = test: BiFC fluorescence imaging of brain tissue sections; format: in vivo, mouse; conditions: 5 mg/kg i.p., 4 months; for Tau-BiFC intensity in the hippocampus compared to vehicle-treated group: hippocampal CA1; for Tau-BiFC intensity in the cortex compared to vehicle-treated group: somatosensory cortex layer V
Experimental: as §1
Brain tissue sections (n = 8 per group) were mounted onto slides. To reduce autofluorescence, brain tissue sections were stained with Sudan Black B solution (70% ethanol containing 0.05% Sudan Black B) for 10 min, washed three times with PBS containing 0.1% Triton X-100 (Sigma), and then washed with distilled water. For counterstaining of nuclei, brain tissues were stained with Hoechst (0.5 μg/mL) for 30 min. BiFC fluorescence (λex = 460–490 nm and λem = 500–550 nm) images were acquired using Axio Scan. Z1 (ZEISS). For quantitative analysis, the mean BiFC fluorescence intensity was measured in the somatosensory cortex (layer V) and hippocampal CA1 from AP;−1.82. To normalize the background fluorescence between the brain samples, the habenular region was used as an internal control. Using ImageJ software (NIH), the region of interest was masked, and the fluorescence intensity value was calculated. Data are shown as the average and standard deviation of the mean fluorescence intensities of brain images from six to eight animals.

Tau^P301L-BiFC mice [4] = test: AT8 immunofluorescence of brain tissue slices; format: in vivo, mouse; conditions: 5 mg/kg i.p., 4 months
Experimental: as §1
For immunofluorescence image analysis, brain tissue slices (n = 6–8 per group) were stained with AT8 (pS202/T205) antibody (1:200, Invitrogen). The primary antibody was detected using Alexa Flour 633-conjugated anti-mouse antibody (1:500, Abcam). Fluorescence images (λex = 620–640 nm and λem = 650–700 nm) were acquired using Axio Scan. Z1 (ZEISS).

Tau^P301L-BiFC mice [5] = test: Tau immunoblot of RIPA-soluble and RIPA-insoluble brain lysates; format: in vivo, mouse; conditions: 5 mg/kg i.p., 4 months; for Level of disulfide-linked tau oligomers in the brain (nonreducing SDS-PAGE): RIPA-soluble brain lysates
Experimental: Band intensity was quantified using ImageJ software (NIH). All data were normalized to β-actin.
as §1
Brains were weighed and suspended in RIPA lysis buffer (Sigma) containing protease and phosphatase inhibitor cocktails. Then, tissues were mechanically disrupted using a cordless mortar and pestle (Sigma) and incubated at 4 °C for 2 h with shaking. The homogenates were centrifuged at 20,000 × g at 4 °C for 20 min. The supernatants were collected as RIPA-soluble fractions and stored at −80 °C. To prepare RIPA-insoluble fractions, the remaining pellets were washed once with RIPA lysis buffer containing 1 M sucrose, resuspended in 2% SDS solution (1 mL per gram of tissue) and incubated at RT for 1 h. The mixtures were centrifuged at 20,000 × g for 1 min at RT. The supernatant was collected as RIPA-insoluble fractions and preserved at −80 °C.

tauK18 [6] = target: T1, tauK18; test: Transmission electron microscopy of tau filaments and oligomers; format: biochemical; conditions: tauK18 preaggregates; DMSO control 13.7 ± 5.2 nm
Experimental: Samples were placed onto carbon-coated copper electron microscopy grids and then negatively stained with 2% (w/v) aqueous uranyl acetate for 1 min. To image the tau filaments (Fig. 3d), the grids were observed using a JEM-1011 transmission electron microscope (JEOL) at an acceleration voltage of 80 kV. To image the tau filaments and oligomers (Figs. 3f and 4e), the grids were observed using a Tecni G2 F20 transmission electron microscope (FEI) at an acceleration voltage of 120 kV. Eight to twelve random images from each experimental condition were captured by the operator as a blind observer.

[7] = 1H NMR of reaction with N-acetyl-L-cysteine methyl ester; conditions: room temperature
Experimental: NMR analysis was performed at 25 °C and recorded in δ units relative to deuterated solvent as an internal reference using a 400 MHz NMR instrument (Bruker). Deuterated phosphate-buffered saline (d-PBS) was prepared at a concentration of 50 mM (D2O + H2O, 1:1, v/v). Levosimendan (50 mg, […], 1 equivalent) reacted with N-acetyl-L-cysteine methyl ester (38 mg, […], 1.2 equivalent) in 10 mL of d-PBS/DMSO-d6 (1:1, v/v) at room temperature, and the reaction was checked at various time points. For the reversibility study, the reaction mixture was diluted ten times with d-PBS/DMSO-d6 (1:1, v/v) and monitored at room temperature.

Compound	EC50 (tauK18 [1]) [µM]	Recognition index (RI) for a novel object (Tau^P301L-BiFC mice [2])	Tau-BiFC intensity in the hippocampus compared to vehicle-treated group (Tau^P301L-BiFC mice [3]) [fold]	Tau-BiFC intensity in the cortex compared to vehicle-treated group (Tau^P301L-BiFC mice [3]) [fold]	AT8 immunoreactivity in the cortex compared to vehicle-treated group (Tau^P301L-BiFC mice [4]) [fold]	AT8 immunoreactivity in the hippocampus compared to vehicle-treated group (Tau^P301L-BiFC mice [4]) [fold]	Level of disulfide-linked tau oligomers in the brain (nonreducing SDS-PAGE) (Tau^P301L-BiFC mice [5])	Fold change, RIPA-insoluble tau (IB: Tau5) (Tau^P301L-BiFC mice [5]; vehicle 1.00) [fold]	Fold change, RIPA-soluble tau phosphorylation at S199 (Tau^P301L-BiFC mice [5]; vehicle 1.00) [fold]	Fold change, RIPA-soluble tau phosphorylation at S396 (Tau^P301L-BiFC mice [5]; vehicle 1.00) [fold]	Diameter (width) of tau particles (TEM) (tauK18 [6]) [nm]	Time to almost complete restoration of levosimendan upon ten-fold dilution ([7]; reaction mixture diluted ten times) [days]	Time to complete formation of the levosimendan-cysteine conjugate ([7]; with N-acetyl-L-cysteine methyl ester) [h]	Fold change, RIPA-soluble total tau (IB: Tau5) (Tau^P301L-BiFC mice [5]; vehicle 1.00)
CN(C)c1ccc2c(c1)Sc1cc(N(C)C)ccc1N2.CS(=O)(=O)O.CS(=O)(=O)O [LMTM, leucomethylene blue mesylate]	3.4 ± 0.2	0.59	0.6 ± 0.1	0.7 ± 0.2	0.6 ± 0.2	0.5 ± 0.2	did not increase or decrease	0.7 ± 0.1	0.6 ± 0.1	0.8 ± 0.2				
C[C@@H]1CC(=O)NN=C1c1ccc(NN=C(C#N)C#N)cc1 [Levosimendan]	3.7 ± 0.2	0.69	0.4 ± 0.2	0.6 ± 01	0.4 ± 0.1	0.4 ± 0.2	significantly decreased the high-molecular-weight oligomers	0.5 ± 0.2	0.5 ± 0.0	0.5 ± 0.1	8.8 ± 2.0	5	≤ 2	decreased slightly
